Experimental data from patent publication EP4458977A1, “SELF-ASSEMBLING PEPTIDE AMPHIPHILES AS RETROVIRAL TRANSDUCTION ENHANCERS” (Max-Planck-Gesellschaft zur Förderung der Wissenschaften …, priority 2023, dated 2024).
“Also recorded” adds a separate entry of the source. Where a SMILES comes first, the peptide text is derived from it. Where no end group is shown, it is not given here. The star is where a group is joined. Fmoc = O=C(OCC1c2ccccc2-c2ccccc21)*; Palmitoyl = CCCCCCCCCCCCCCCC(=O)*

Experiments:
[1] = TEM of peptide assemblies (fibril formation / assembly); format: physicochemical; set-up: key to Fibril Formation: "1" means fibril formation observed; "0" means no fibrils observed; details: for TEM morphology (in words): 1 mg/mL in PBS; for Assembly without hydrophob residue: corresponding peptide without hydrophobic moiety; for Assembly: peptide amphiphile; for Fibril Formation: via TEM
Summary of the method: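 Peptides predissolved in DMSO at 10 mg/mL (stock), diluted in PBS to 650 µM or 1 mg/mL final and incubated 1 d at rt (20–25 °C) to form fibrils. Other concentrations obtained by diluting preformed fibrils; assemblies imaged by TEM.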

[2] = Thioflavin T (ThT) fluorescence assay; format: physicochemical; details: relative to PBS control
Description: Transmission electron microscopy (TEM) measurements, Thioflavin (ThT), zeta-potential measurements for fibril characterization were prepared and conducted according to prior art procedures. […] Fibrils were defined as distinct, if no visible structures could be identified in fluorescence and brightfield microscopy. A peptide fibril was considered as ThT-active if the fluorescence intensity was at least twice as strong compared to the control (PBS containing 10% DMSO).

[3] = ATR-FT-IR determination of β-sheet content; format: physicochemical; details: 1 mg/mL in PBS lyophilized; integral at 1630 cm^-1 relative to 1650-1700 cm^-1
Summary of the method: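 From second-derivative spectra, β-sheet amount is the 1630 cm-1 integral over the 1650-1700 cm-1 (native) region. Spectra were taken on solid, lyophilized fibrils via diamond-crystal ATR, averaging 64 scans at 2 cm^-1 resolution.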

[4] = Zeta-potential measurement (dynamic light scattering); format: physicochemical
HeLa cells = test: Confocal laser scanning microscopy and degradation study with PA library and HeLa cells; format: cell-based; details: for association with cellular membranes: 2 µg added to 20.000 HeLa cells, 30 min; for degradability (in words) / Degradability / % (rel. to initial particles > 10 µm^2): HeLa cells; for degradability (in words): 3 days; for Degradability / % (rel. to initial particles > 10 µm^2): 3 d relative to 30 min; for aggregate number decreases / degraded in presence of HeLa cells within 3 days: d3 relative to d0
Summary of the method: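 HeLa cells (20,000/well) got Proteostat-stained PAs (2 µg peptide per 20.000 cells) with Hoechst nuclear stain, 30 min at 37°C, PBS-washed, then held 3 d at 37°C unwashed. Confocal imaging at d0 and d3 counted aggregates >10 µm^2 in 1008 × 1008 µm, three technical replicates. Degradation taken as d3/d0 aggregate number.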

HIV-1 = details: for enhancement of HIV-1 infection / transduction (in words): 6.5 µM, 1.3 µM, 0.26 µM; for Infectivity enhancing N fold at 1.3 µM: relative to virus only;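 for all read-outs here: TZM-bl reporter cells exposed to HIV-1 with peptide fibrils, infection read out as β-galactosidase luminescence, compared with virus alone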
Description: HIV-1 Infection Assay with TZM-bl cells: The effect of peptide fibrils on HIV-1 infection was studied via a luminescence assay for β-galactosidase, which was reported by TZM-bl cells upon infection. The HIV-1 infection assay was conducted in three technical replicates and repeated in three independent experiments unless stated otherwise.

[5] = Zeta-potential measurement (dynamic light scattering); format: physicochemical; details: for Count Rate / kcps: derived count rate of scattered light during zeta-potential measurements
Description: Zeta-potential: 60 µL of the peptides (1 mg mL-1) were diluted in 600 µL, 1 mM KCI solution and placed in a disposable folded capillary cuvette. All zeta-potential measurements were conducted by dynamic light scattering technology (Zetasizer, Malvern Instruments) and in triplicates for each sample. The derived count rate of the zeta potential measurement was used as information on the light scattering intensity and turbidity of the sample as a further indicator for microscopic aggregation.

[6] = Fluorescence microscopy of ThT-stained fibrils (µm-sized aggregates); format: physicochemical; details: for fluorescent, µm-sized aggregates (ThT staining): 1 mg/mL stained with 50 µM ThT
Summary of the method: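 Fibrils (1 mg mL^-1) mixed 1:9 with 50 µM ThT, giving 0.1 mg mL^-1 stained fibrils on glass. Imaged under 10x air objective with excitation 480/40 nm and emission 527/30 nm. Fibrils called distinct when no visible structures appeared in fluorescence or brightfield.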

For CC(C)[C@H](NC(=O)OCC1c2ccccc2-c2ccccc21)C(=O)N[C@H](C(=O)N[C@H](C(=O)N[C@@H](C)C(=O)N[C@@H](C)C(=O)N[C@@H](C)C(=O)N[C@@H](CCCCN)C(=O)N[C@@H](CCCCN)C(=O)N[C@@H](CCCCN)C(N)=O)C(C)C)C(C)C [Pat12] (Fmoc-VVVAAAKKK-NH2), the “TEM morphology (in words)” value [1] was “able to form fibrils; also recorded: fibrillar morphologies”, the “Assembly without hydrophob residue” value [1] was “No” and the Assembly [1] was “Yes”. The “Fibril Formation” value ([1]; hydrophobic moiety exchange) was 1, the “N-fold ThT-fluorescence” value [2] was 269.9 and the β-sheet amount [3] was 52%. For the same compound, the “Zeta-Potential / mV” value [4] was 15.2 mV, the “association with cellular membranes” value (HeLa cells) was “association with cellular membranes” and the “degradability (in words)” value (HeLa cells) was “non-degradable PA”. For the same compound, the “Degradability / % (rel. to initial particles > 10 µm^2)” value (from here on “Degradability / %”) (HeLa cells) was 28%, the “aggregate number decreases / degraded in presence of HeLa cells within 3 days” value (from here on “aggregate number decreases / degraded”) (HeLa cells) was 28% and the “enhances infectivity at 1.3 µM concentration, times more efficient compared to virus only infection” value (HIV-1) was 5 times. The “enhancement of HIV-1 infection / transduction (in words)” value (HIV-1) was “showed infectivity enhancement”, the “Infectivity enhancing N fold at 1.3 µM” value (HIV-1) was 5±1 N fold and the “zeta-potential (in words)” value [5] was “positive zeta-potential”. For the same compound, the “Count Rate / kcps” value [5] was 509.5 kcps, the “formation of µm-sized aggregates in aqueous medium / PBS (in words)” value [6] was “form µm-sized aggregates” and the “fluorescent, µm-sized aggregates (ThT staining)” value (from here on “fluorescent … (ThT staining)”) [6] was “fluorescent, µm-sized aggregates”.

For “C16-ester-SVVVAAAKKK-NH2 (S(Palmitoyl)VVVAAAKKK-NH2; N-terminus assumed; SMILES CCCCCCCCCCCCCCCC(=O)OC[C@H](N)C(=O)N[C@H](C(=O)N[C@H](C(=O)N[C@H](C(=O)N[C@@H](C)C(=O)N[C@@H](C)C(=O)N[C@@H](C)C(=O)N[C@@H](CCCCN)C(=O)N[C@@H](CCCCN)C(=O)N[C@@H](CCCCN)C(N)=O)C(C)C)C(C)C)C(C)C) [Pat1]”, the “TEM morphology (in words)” value [1] was “fibrillar morphologies”, the “Assembly without hydrophob residue” value [1] was “No” and the Assembly [1] was “Yes”. For the same compound, the “Fibril Formation” value ([1]; linkage chemistry exchange) was 1, the “N-fold ThT-fluorescence” value [2] was 277.1 and the β-sheet amount [3] was 43%. The “Zeta-Potential / mV” value [4] was 20.5 mV, the “association with cellular membranes” value (HeLa cells) was “association with cellular membranes” and the “degradability (in words)” value (HeLa cells) was “degraded well, but not as efficient as PA1 or Pat3; also recorded: degradable PA”. For the same compound, the “Degradability / %” value (HeLa cells) was 31%, the “aggregate number decreases / degraded” value (HeLa cells) was 30% and the “enhances infectivity at 1.3 µM concentration, times more efficient compared to virus only infection” value (HIV-1) was 17 times. For the same compound, the “Infectivity enhancing N fold at 1.3 µM” value (HIV-1) was 17±5 N fold, the “Count Rate / kcps” value [5] was 3217.3 kcps and the “fluorescent … (ThT staining)” value [6] was “fluorescent, µm-sized aggregates”.

With “C16-thioester-CVVVAAAKKK-NH2 (C(Palmitoyl)VVVAAAKKK-NH2; N-terminus assumed; SMILES CCCCCCCCCCCCCCCC(=O)SC[C@H](N)C(=O)N[C@H](C(=O)N[C@H](C(=O)N[C@H](C(=O)N[C@@H](C)C(=O)N[C@@H](C)C(=O)N[C@@H](C)C(=O)N[C@@H](CCCCN)C(=O)N[C@@H](CCCCN)C(=O)N[C@@H](CCCCN)C(N)=O)C(C)C)C(C)C)C(C)C) [Pat3]” the “TEM morphology (in words)” value [1] was “fibrillar morphologies”, the “Assembly without hydrophob residue” value [1] was “No” and the Assembly [1] was “Yes”. The “Fibril Formation” value ([1]; linkage chemistry exchange) was 1, the “N-fold ThT-fluorescence” value [2] was 166.1 and the β-sheet amount [3] was 50%. The “Zeta-Potential / mV” value [4] was 18.3 mV, the “association with cellular membranes” value (HeLa cells) was “association with cellular membranes” and the “degradability (in words)” value (HeLa cells) was “degradable PA”. For the same compound, the “Degradability / %” value (HeLa cells) was 87%, the “aggregate number decreases / degraded” value (HeLa cells) was 87% and the “enhances infectivity at 1.3 µM concentration, times more efficient compared to virus only infection” value (HIV-1) was 11 times. For the same compound, the “enhancement of HIV-1 infection / transduction (in words)” value (HIV-1) was “potent enhancers of HIV-1 infection”, the “Infectivity enhancing N fold at 1.3 µM” value (HIV-1) was 11±4 N fold and the “Count Rate / kcps” value [5] was 2058.5 kcps. The “fluorescent … (ThT staining)” value [6] was “fluorescent, µm-sized aggregates”.
